Data: patent US20230346670A1, “Prebiotic Oral Care Compositions and Methods” (Colgate-Palmolive Company, priority 2020, published 2023)

How the values were obtained:
Type in all cases: cell-based
A. viscosus = assay: Multi-species biofilm composition, absolute abundance (Geq/mL); settings: repeated rinsing
Experimental: (§1) Biofilms are grown vertically on Calcium Deficient Hydroxyapatite (CAD-HA) disks (Hitemco Medical, Old Bethpage, USA) using the Amsterdam Active Adhesion model. Biofilms are allowed to establish during 24 h (37° C., 170 rpm) under microaerophilic conditions (6% O2, 7% CO2, 7% H2, 80% N2). After this 24 h, disks are rinsed 3 times a day for 3 minutes (RT, 250 rpm), for 3 consecutive days, by transferring the lid containing the disks to a new 24-well plate containing 2 mL/well of the appropriate substrate solution. As a negative control, PBS (pH 5.7) without substrate supplementation is used.
(§2) N-acetyl-D-glucosamine (NADG), α-D-lactose, D-(+)-trehalose and D-(+)-raffinose are selected to determine their effects on multi-species biofilm composition. […] decrease in absolute numbers in at least four of the pathogenic bacterial species tested in the assay, in comparison to the control, the results of which are described in Table 1 below. Note, NADG decreased absolute numbers of S. sobrinus. Absolute abundances of bacterial species are shown as mean ± SD (n = 3) logarithmic values of the genome equivalents per millilitre (log(Geq/mL)).

F. nucleatum = assay: as above; settings: repeated rinsing
Experimental: as §1, §2

S. mutans = assay: as above; settings: repeated rinsing
Experimental: as §1, §2

S. salivarius = assay: as above; settings: repeated rinsing
Experimental: as §1, §2

S. sanguinis = assay: as above; settings: repeated rinsing
Experimental: as §1, §2

V. parvula = assay: as above; settings: for absolute abundance of V. parvula (VP), mean ± SD log (Geq/mL): repeated rinsing
Experimental: as §1, §2

[1] = test system: A. actinomycetemcomitans virulence genes; assay: Virulence gene expression in multi-species biofilm (SYBR RT-qPCR)
Experimental: as §1
The virulence of the substrate-treated multi-species biofilms are evaluated by analyzing the relative expression of 33 genes that are recognized as being related to some form of virulence and from 4 periodontal pathogens.
Expression of bacterial virulence genes is analyzed through SYBR RT-qPCR and normalized for bacterial housekeeping gene expression. […] These effects are illustrated in Tables 6a and 6b:
Note, for Tables 6a and 6b, that fold changes in virulence gene expression are determined relative to the control condition through the 2^^-ΔΔCt method and are shown as the geometric mean (C.I.) (n = 3) of the 2^^-ΔΔ ^Ct values. All substrates are dissolved in PBS at a concentration of 1 M (upper part) or 1%(w/v) (lower part). Values between 0 and 1 represent relative downregulation, values >1 represent relative upregulation. […] NADG: N-acetyl-D-glucosamine; C.I.: 95% confidence interval.

[2] = lower part of Table 6a, substrate 1%(w/v), relative to control = 1
[3] = substrate 1 M, relative to control = 1, 2^-ΔΔCt, n = 3

OC[C@H]1O[C@@H](O[C@H]2[C@H](O)[C@@H](O)[C@@H](O)O[C@@H]2CO)[C@H](O)[C@@H](O)[C@H]1O [D-lactose, α-D-lactose]
absolute abundance of A. viscosus (Av), mean ± SD log (Geq/mL) (A. viscosus; substrate 1% (w/v)): 7.89 ± 0.13 log (Geq/mL)
absolute abundance of A. viscosus (Av), mean ± SD log (Geq/mL) (A. viscosus; substrate 1 M in PBS, n = 3): 6.78 ± 0.41 log (Geq/mL)
absolute abundance of F. nucleatum (Fn), mean ± SD log (Geq/mL) (F. nucleatum; substrate 1% (w/v)): 9.39 ± 0.42 log (Geq/mL)
absolute abundance of F. nucleatum (Fn), mean ± SD log (Geq/mL) (F. nucleatum; substrate 1 M in PBS, n = 3): 5.49 ± 0.46^∗ log (Geq/mL)
absolute abundance of S. mutans, mean ± SD log (Geq/mL) (S. mutans; substrate 1% (w/v)): 7.48 ± 0.14 log (Geq/mL)
absolute abundance of S. mutans, mean ± SD log (Geq/mL) (S. mutans; substrate 1 M in PBS, n = 3): 8.00 ± 0.56 log (Geq/mL)
absolute abundance of S. salivarius, mean ± SD log (Geq/mL) (S. salivarius; substrate 1% (w/v)): 2.65 ± 0.00 log (Geq/mL)
absolute abundance of S. salivarius, mean ± SD log (Geq/mL) (S. salivarius; substrate 1 M in PBS, n = 3): 6.95 ± 0.14^∗ log (Geq/mL)
absolute abundance of S. sanguinis, mean ± SD log (Geq/mL) (S. sanguinis; substrate 1% (w/v)): 8.99 ± 0.54 log (Geq/mL)
absolute abundance of S. sanguinis, mean ± SD log (Geq/mL) (S. sanguinis; substrate 1 M in PBS, n = 3): 5.80 ± 1.09 log (Geq/mL)
absolute abundance of V. parvula (VP), mean ± SD log (Geq/mL) (V. parvula; substrate 1% (w/v)): 9.92 ± 0.20 log (Geq/mL)
reduction of V. parvula numbers in comparison to the control (V. parvula; substrate 1 M): ~ 0.7 log(Geq/mL)
absolute abundance of V. parvula (VP), mean ± SD log (Geq/mL) (V. parvula; substrate 1 M in PBS, n = 3): 9.45 ± 0.15^∗ log (Geq/mL)
fold change in aae expression, geometric mean (95% C.I.) [1, 2]: 1.36 (0.70-2.67) fold
fold change in apaH expression, geometric mean (95% C.I.) [1, 2]: 0.84 (0.29-2.49) fold
fold change in cdtB expression, geometric mean (95% C.I.) [1, 2]: 0.66 (0.21-2.03) fold
fold change in emaA expression, geometric mean (95% C.I.) [1, 2]: 0.34 (0.25-0.45)^∗ fold
fold change in flp expression, geometric mean (95% C.I.) [1, 2]: 0.81 (0.08-7.83) fold
fold change in ltxA expression, geometric mean (95% C.I.) [1, 2]: 0.04 (0.02-0.08)^∗ fold
fold change in omp29 expression, geometric mean (95% C.I.) [1, 2]: 0.81 (0.73-0.89) fold
fold change in omp100 expression, geometric mean (95% C.I.) [1, 2]: 0.34 (0.23-0.49)^∗ fold
fold change in orf859 expression, geometric mean (95% C.I.) [1, 2]: 0.97 (0.37-2.54) fold
fold change in pgA expression, geometric mean (95% C.I.) [1, 2]: 0.55 (0.41-0.74) fold
fold change in vapA expression, geometric mean (95% C.I.) [1, 2]: 0.90 (0.60-1.35) fold
fold change in vppA expression, geometric mean (95% C.I.) [1, 2]: 0.40 (0.14-1.15)^∗ fold
fold change in aae expression, geometric mean (95% C.I.) [1, 3]: 0.03 (0.01-0.22)^∗ fold
fold change in apaH expression, geometric mean (95% C.I.) [1, 3]: 0.04 (0.01-0.21)^∗ fold
fold change in cdtB expression, geometric mean (95% C.I.) [1, 3]: 0.02 (0.00-0.21)^∗ fold
fold change in emaA expression, geometric mean (95% C.I.) [1, 3]: 0.08 (0.06-0.11)^∗ fold
fold change in flp expression, geometric mean (95% C.I.) [1, 3]: 0.44 (0.10-1.94) fold
fold change in ltxA expression, geometric mean (95% C.I.) [1, 3]: 0.01 (0.00-0.08)^∗ fold
fold change in omp29 expression, geometric mean (95% C.I.) [1, 3]: 0.42 (0.33-0.52)^∗ fold
fold change in omp100 expression, geometric mean (95% C.I.) [1, 3]: 0.08 (0.04-0.15)^∗ fold
fold change in orf859 expression, geometric mean (95% C.I.) [1, 3]: 0.05 (0.00-0.79)^∗ fold
fold change in pgA expression, geometric mean (95% C.I.) [1, 3]: 4.30 (2.21-8.37)^∗ fold
fold change in vapA expression, geometric mean (95% C.I.) [1, 3]: 0.22 (0.13-0.36)^∗ fold
